PubChem BioAssay (NCI)
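Cells were grown in 96-well plates and exposed to each compound for 48 hours at five concentrations; endpoints were interpolated linearly between bracketing concentrations, or set to the highest concentration if not reached. Abbreviation: GI50, concentration required for 50% inhibition of growth. TGI is the concentration that stops growth completely.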

Columns and labels:
Assay in all cases: NCI tumour cell line growth inhibition, 48 h
[1] = tested on: SNB-19 CNS
[2] = tested on: MDA-MB-231 breast
[3] = tested on: K-562 leukemia
[4] = tested on: SK-MEL-28 melanoma
[5] = tested on: MALME-3M melanoma
[6] = tested on: UO-31 renal
[7] = tested on: KM12 colon
[8] = tested on: OVCAR-5 ovarian
[9] = tested on: BT-549 breast
[10] = tested on: HOP-62 NSCLC
[11] = tested on: LOX IMVI melanoma
[12] = tested on: NCI/ADR-RES ovarian
[13] = tested on: A498 renal
[14] = tested on: RPMI-8226 leukemia
[15] = tested on: SK-MEL-2 melanoma
[16] = tested on: EKVX NSCLC
[17] = tested on: OVCAR-8 ovarian
[18] = tested on: MDA-MB-435
[19] = tested on: NCI-H522 lung
[20] = tested on: OVCAR-4 ovarian
[21] = tested on: NCI-H226 lung
[22] = tested on: OVCAR-3 ovarian
[23] = tested on: ACHN renal
[24] = tested on: U251 CNS
[25] = tested on: A549 NSCLC
[26] = tested on: HOP-92 NSCLC
[27] = tested on: SK-OV-3 ovarian
[28] = tested on: SW-620 colon
[29] = tested on: SF-539 CNS
[30] = tested on: HCT-116 colon
[31] = tested on: CCRF-CEM leukemia
[32] = tested on: M14 melanoma
[33] = tested on: HCC-2998 colon
[34] = tested on: MCF7 breast
[35] = tested on: TK-10 renal
[36] = tested on: COLO 205 colon
[37] = tested on: PC-3 prostate
[38] = tested on: HS 578T breast
[39] = tested on: UACC-62 melanoma
[40] = tested on: CAKI-1 renal
[41] = tested on: HT29 colon
[42] = tested on: MOLT-4 leukemia
[43] = tested on: SK-MEL-5 melanoma
[44] = tested on: T-47D breast
[45] = tested on: SF-295 CNS
[46] = tested on: HCT-15 colon
[47] = tested on: HL-60(TB) leukemia
[48] = tested on: RXF 393 renal
[49] = tested on: SN12C renal
[50] = tested on: NCI-H23 lung
[51] = tested on: 786-0 renal
[52] = tested on: DU-145 prostate
[53] = tested on: SF-268 CNS
[54] = tested on: UACC-257 melanoma
[55] = tested on: NCI-H460 lung
[56] = tested on: SNB-75 CNS

**Q.** Which results are given for `COC(=O)[C@@]1(Cc2ccccc2)[C@H]2c3cc(C(=O)N4CCCC4)n(Cc4ccc(OC)c(OC)c4)c3C[C@H]2CN1C(=O)c1ccccc1`?
**A.** GI50 [1]: 17.4 µM; TGI [1]: > 50 µM; GI50 [2]: 8.17 µM; TGI [2]: 21.4 µM; GI50 [3]: 9.27 µM; TGI [3]: 37.3 µM; GI50 [4]: 10.1 µM; TGI [4]: 21.7 µM; GI50 [5]: 10.4 µM; TGI [5]: 21 µM; GI50 [6]: 8.5 µM; TGI [6]: 17.3 µM; GI50 [7]: 9.44 µM; TGI [7]: 18.2 µM; GI50 [8]: 9.19 µM; TGI [8]: 21.8 µM; GI50 [9]: 8.46 µM; TGI [9]: 16.1 µM; GI50 [10]: 8.34 µM; TGI [10]: 17.8 µM; GI50 [11]: 9.12 µM; TGI [11]: 16.8 µM; GI50 [12]: 11.4 µM; TGI [12]: 35.4 µM; GI50 [13]: 10.4 µM; TGI [13]: 19.2 µM; GI50 [14]: 10.8 µM; TGI [14]: 23.5 µM; GI50 [15]: 8.76 µM; TGI [15]: 18.7 µM; GI50 [16]: 9.84 µM; TGI [16]: 21.2 µM; GI50 [17]: 11.8 µM; TGI [17]: 34.1 µM; GI50 [18]: 11.7 µM; TGI [18]: 32.8 µM; GI50 [19]: 8.73 µM; TGI [19]: 19.6 µM; GI50 [20]: 16.4 µM; TGI [20]: > 50 µM; GI50 [21]: 9.78 µM; TGI [21]: 19.3 µM; GI50 [22]: 9.03 µM; TGI [22]: 21 µM; GI50 [23]: 17.8 µM; TGI [23]: > 50 µM; GI50 [24]: 13 µM; TGI [24]: 40.7 µM; GI50 [25]: 13.7 µM; TGI [25]: 46.2 µM; GI50 [26]: 13.3 µM; TGI [26]: 28 µM; GI50 [27]: 18.9 µM; TGI [27]: > 50 µM; GI50 [28]: 6.92 µM; TGI [28]: 13.4 µM; GI50 [29]: 9.73 µM; TGI [29]: 18.1 µM; GI50 [30]: 7.28 µM; TGI [30]: 13.8 µM; GI50 [31]: 16.4 µM; TGI [31]: > 50 µM; GI50 [32]: 11.5 µM; TGI [32]: 25.7 µM; GI50 [33]: 8.86 µM; TGI [33]: 15.8 µM; GI50 [34]: 13.8 µM; TGI [34]: 44.8 µM; GI50 [35]: 16 µM; TGI [35]: 43.9 µM; GI50 [36]: 5.83 µM; TGI [36]: 12.4 µM; GI50 [37]: 22.6 µM; TGI [37]: > 50 µM; GI50 [38]: 6.56 µM; TGI [38]: 19.4 µM; GI50 [39]: 7.49 µM; TGI [39]: 15.8 µM; GI50 [40]: 14 µM; TGI [40]: > 50 µM; GI50 [41]: 9.12 µM; TGI [41]: 25 µM; GI50 [42]: 7.94 µM; TGI [42]: 32.8 µM; GI50 [43]: 7.71 µM; TGI [43]: 14.4 µM; GI50 [44]: 9.55 µM; TGI [44]: 32.1 µM; GI50 [45]: 12.7 µM; TGI [45]: 34.4 µM; GI50 [46]: 7.77 µM; TGI [46]: 14.5 µM; GI50 [47]: 8.96 µM; TGI [47]: 24.8 µM; GI50 [48]: 5.89 µM; TGI [48]: 12.8 µM; GI50 [49]: 9.96 µM; TGI [49]: 24.8 µM; GI50 [50]: 11.6 µM; TGI [50]: 36.1 µM; GI50 [51]: 13.7 µM; TGI [51]: > 50 µM; GI50 [52]: 15 µM; TGI [52]: > 50 µM; GI50 [53]: 13.3 µM; TGI [53]: > 50 µM; GI50 [54]: 7.72 µM; TGI [54]: 15.2 µM; GI50 [55]: 9.12 µM; TGI [55]: 18.9 µM; GI50 [56]: 17.4 µM; TGI [56]: > 50 µM
